Test results taken from paper PMC9200763 (Scientific Reports, 2022).
In brackets after ≈: the same amount, converted by molar mass. Like-named read-outs stand apart in the source and are kept apart here.

Tests used:
[1] = test system: A. parasiticus; details: cited from earlier work
[2] = ABTS assay; assay type: biochemical; details: for ABTS scavenging EC50: analyzed using XLSTAT software
[3] = test system: B. cereus ATCC-10876; assay: Disc diffusion, zone of inhibition; details: Bacillus cereus
[4] = test system: Aspergillus fumigatus ATCC-204305; assay: Disc diffusion, zone of inhibition
[5] = test system: A. niger ATCC-16885; assay: Disc diffusion, zone of inhibition
[6] = test system: Aspergillus fumigatus ATCC-204305; assay: Broth micro dilution MIC; assay type: cell-based; details: ATCC204305, A. fumigatus
[7] = test system: Candida albicans ATCC-66027; assay: Disc diffusion, zone of inhibition
[8] = test system: Bacillus subtilis ATCC-11774; assay: Broth micro dilution MIC; assay type: cell-based; details: ATCC11774, B. subtilis
[9] = test system: Allium cepa root; details: 1 μL/mL
[10] = Metal chelating activity assay; assay type: biochemical; details: for Metal chelating EC50: analyzed using XLSTAT software
[11] = test system: AChE; parameters: method as in PMID 19351555; details: cited from earlier work
[12] = biological target: α-Amylase; assay: Antidiabetic activity assay (α-amylase inhibitory); assay type: biochemical
[13] = test system: Staphylococcus aureus ATCC-11632; assay: Disc diffusion, zone of inhibition
[14] = test system: Streptococcus mutans ATCC-25175; assay: Broth micro dilution MIC; assay type: cell-based; details: ATCC25175, S.mutans
[15] = DPPH free radical scavenging activity; assay type: biochemical; details: for DPPH scavenging EC50: analyzed using XLSTAT software
[16] = biological target: Acetylcholinesterase (Homo sapiens, UniProt P22303); assay: Acetylcholinesterase inhibitory assay; assay type: biochemical
[17] = test system: Staphylococcus aureus ATCC-11632; assay: Broth micro dilution MIC; assay type: cell-based; details: ATCC11632, S. aureus
[18] = test system: BChE; parameters: method as in PMID 19351555; details: cited from earlier work
[19] = biological target: T1, egg albumin (Gallus gallus, UniProt P01012); assay: Protein egg albumin denaturation assay; assay type: biochemical
T1 construct: albumin was extracted from a fresh egg collected from local market of Jorhat, India; from tissue; host or cells: fresh egg (egg white), local market

[20] = test system: Streptococcus mutans ATCC-25175; assay: Disc diffusion, zone of inhibition
[21] = test system: Bacillus subtilis ATCC-11774; assay: Disc diffusion, zone of inhibition
[22] = test system: Allium cepa root tips; assay: Allium cepa assay, mitotic index and stages of dividing cells
Text: (§1) The frequency of chromosomal aberration was checked following protocol of Babatunde and Bakare[31].

[23] = test system: Saccharomyces cerevisiae ATCC-9763; assay: Disc diffusion, zone of inhibition
[24] = parameters: method as in PMID 23181593; details: at 100 μg/mL; cited from earlier work
[25] = parameters: method as in PMID 23181593; details: cited from earlier work
[26] = test system: Allium cepa root; assay: Allium cepa assay, root growth; details: 1 μL/mL
[27] = test system: Allium cepa root tips; assay: Allium cepa assay, chromosomal aberration test; details: 01.00 µL/mL; 72 h
Text: as §1

[28] = test system: Salmonella typhimurium ATCC-13311; assay: Disc diffusion, zone of inhibition; assay type: cell-based; details: Salmonella enterica, S. typhimurium, read-out: Zone of inhibition, standard drug
Procedure: Ciprofloxacin and fluconazole were used as standard antimicrobial drugs at a concentration (10 μg/disc) for bacterial and fungal strains, respectively.
MHA was used for culturing the bacteria from bacterial broth and kept at 37 °C for 24 h. The fungal broth was used to prepare fungal culture in PDB and it was kept at 28 °C for 48 h.

[29] = analyzed using Graph Pad Prism software
[30] = analyzed using MS-EXCEL software
[31] = Aspergillus fumigatus, ATCC204305

T1 sequence (P01012 whole entry): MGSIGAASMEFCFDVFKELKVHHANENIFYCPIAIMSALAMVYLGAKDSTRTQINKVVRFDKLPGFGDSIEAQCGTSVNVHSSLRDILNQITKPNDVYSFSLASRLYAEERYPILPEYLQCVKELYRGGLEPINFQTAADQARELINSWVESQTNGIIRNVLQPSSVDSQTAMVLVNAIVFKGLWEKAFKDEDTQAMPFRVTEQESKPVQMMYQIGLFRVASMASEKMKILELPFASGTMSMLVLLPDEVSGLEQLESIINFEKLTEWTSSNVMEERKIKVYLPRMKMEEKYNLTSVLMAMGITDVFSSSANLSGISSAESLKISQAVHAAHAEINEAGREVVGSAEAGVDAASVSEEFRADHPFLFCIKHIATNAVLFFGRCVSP
Sequence of Acetylcholinesterase (P22303 32-614, species assumed): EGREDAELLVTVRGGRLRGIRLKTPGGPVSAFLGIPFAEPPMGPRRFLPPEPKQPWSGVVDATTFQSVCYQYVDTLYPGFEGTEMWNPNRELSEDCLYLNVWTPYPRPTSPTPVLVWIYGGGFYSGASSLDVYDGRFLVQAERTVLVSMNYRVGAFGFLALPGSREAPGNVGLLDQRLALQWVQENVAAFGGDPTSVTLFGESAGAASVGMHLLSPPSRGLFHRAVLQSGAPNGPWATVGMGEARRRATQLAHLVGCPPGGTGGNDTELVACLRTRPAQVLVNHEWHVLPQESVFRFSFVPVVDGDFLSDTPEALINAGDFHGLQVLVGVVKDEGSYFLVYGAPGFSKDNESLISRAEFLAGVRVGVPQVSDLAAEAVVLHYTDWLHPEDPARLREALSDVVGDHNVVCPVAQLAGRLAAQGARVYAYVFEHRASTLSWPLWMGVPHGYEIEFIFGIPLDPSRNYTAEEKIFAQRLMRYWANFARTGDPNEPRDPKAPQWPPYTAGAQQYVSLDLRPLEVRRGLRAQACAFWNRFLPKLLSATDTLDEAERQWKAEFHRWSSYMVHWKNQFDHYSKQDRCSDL

SMILES: C/C=C/c1ccc(OC)cc1 [Anethole standard, anethole]
- Concentration that inhibits completely the growth of A. parasiticus [1]: 400 µg/mL
- ABTS scavenging IC50 [2, 29]: 34.9 ± 0.004 µg/mL
- ABTS scavenging IC50 [2, 30]: 9.26 ± 0.002 µg/mL
- ABTS scavenging EC50 [2]: 9.48 ± 0.048 µg/mL
- zone of inhibition at 250 µg/mL ([3]; ATCC10876): 13 mm
- zone of inhibition at 500 µg/mL ([3]; ATCC10876): 16 mm
- zone of inhibition at 250 µg/mL [4, 31]: 14 mm
- zone of inhibition at 500 µg/mL [4, 31]: 18 mm
- zone of inhibition at 250 µg/mL ([5]; Aspergillus niger, ATCC16885): 16 mm
- zone of inhibition at 500 µg/mL ([5]; Aspergillus niger, ATCC16885): 21 mm
- MIC [6]: 65 µg/mL (≈ 439 µM)
- zone of inhibition at 500 µg/mL ([7]; Candida albicans, ATCC66027): 19 mm
- MIC [8]: 90 µg/mL (≈ 607 µM)
- Root length before treatment ± SD ([9]; 0 h): 7.71 ± 0.016 cm
- Root length after treatment ± SD ([9]; 72 h): 8.36 ± 0.009 cm
- Metal chelating IC50 [10, 29]: 12.15 ± 0.032 µg/mL
- Metal chelating IC50 [10, 30]: 31.02 ± 0.018 µg/mL
- Metal chelating EC50 [10]: 29.54 ± 0.032 µg/mL
- AChE inhibitory IC50 [11]: 134.70 µg/mL
- α-Amylase inhibitory IC50 [12, 29]: 13.08 ± 0.016 µg/mL
- α-Amylase inhibitory IC50 [12, 30]: 22.16 ± 0.12 µg/mL
- α-Amylase inhibitory EC50 ([12]; analyzed using XLSTAT software): 21.75 ± 0.008 µg/mL
- zone of inhibition at 100 µg/mL ([13]; ATCC11632): 8 mm
- zone of inhibition at 250 µg/mL ([13]; ATCC11632): 10 mm
- zone of inhibition at 500 µg/mL ([13]; ATCC11632): 14 mm
- MIC [14]: 15 µg/mL (≈ 101 µM)
- DPPH scavenging IC50 [15, 29]: 0.58 ± 0.048 µg/mL
- DPPH scavenging IC50 [15, 30]: 10.94 ± 0.026 µg/mL
- DPPH scavenging EC50 [15]: 8.69 ± 0.058 µg/mL
- EC50 [16]: 208 µM
- IC50 ([16]; Acetylcholinesterase inhibitory IC50, analyzed using Graph Pad Prism software): 145 µM
- IC50 ([16]; Acetylcholinesterase inhibitory IC50, analyzed using MS-EXCEL software): 228 µM
- MIC [17]: 95 µg/mL (≈ 641 µM)
- BChE inhibitory IC50 [18]: 209.60 µg/mL
- EC50 [19]: 132 µM
- IC50 ([19]; Protein denaturation IC50, analyzed using Graph Pad Prism software): 1380 µM
- IC50 ([19]; Protein denaturation IC50, analyzed using MS-EXCEL software): 130 µM
- zone of inhibition at 50 µg/mL ([20]; ATCC25175): 12 mm
- zone of inhibition at 100 µg/mL ([20]; ATCC25175): 16 mm
- zone of inhibition at 250 µg/mL ([20]; ATCC25175): 18 mm
- zone of inhibition at 500 µg/mL ([20]; ATCC25175): 23 mm
- zone of inhibition at 100 µg/mL ([21]; ATCC11774): 8 mm
- zone of inhibition at 250 µg/mL ([21]; ATCC11774): 11 mm
- zone of inhibition at 500 µg/mL ([21]; ATCC11774): 13 mm
- Genotoxic effect (in words) [22]: no genotoxic effect
- Anaphase, dividing cells ([22]; Allium cepa, 1 μL/mL): 13.51%
- Metaphase, dividing cells ([22]; Allium cepa, 1 μL/mL): 18.92%
- Prophase, dividing cells ([22]; Allium cepa, 1 μL/mL): 59.46%
- Telophase, dividing cells ([22]; Allium cepa, 1 μL/mL): 8.10%
- zone of inhibition at 500 µg/mL ([23]; Saccharomyces cerevisiae, ATCC9763): 16 mm

SMILES: O=C1O[C@H]([C@@H](O)CO)C(O)=C1O [Ascorbic acid]
- Reducing power [24]: 0.85
- ABTS scavenging IC50 [2, 29]: 39.31 ± 0.84 µg/mL
- ABTS scavenging IC50 [2, 30]: 17.61 ± 0.012 µg/mL
- ABTS scavenging EC50 [2]: 19.54 ± 0.121 µg/mL
- DPPH scavenging activity ([25]; at 1000 μg/mL): 99.65%
- DPPH IC50 [25]: 5.15 µg/mL
- DPPH scavenging IC50 [15, 29]: 0.60 ± 0.121 µg/mL
- DPPH scavenging IC50 [15, 30]: 17.27 ± 0.004 µg/mL
- DPPH scavenging EC50 [15]: 17.55 ± 0.056 µg/mL

SMILES: O=C(O)CN(CCN(CC(=O)O)CC(=O)O)CC(=O)O [EDTA, ethylenediamminetetracetic acid]
- Metal chelating IC50 [10, 29]: 12.11 ± 0.002 µg/mL
- Metal chelating IC50 [10, 30]: 29.92 ± 0.002 µg/mL
- Metal chelating EC50 [10]: 29.33 ± 0.064 µg/mL

SMILES: CCOS(C)(=O)=O [EMS, ethyl methanesulphonate]
- Root length after treatment ± SD ([26]; after treatment): 7.31 ± 0.013 cm
- Root length before treatment ± SD ([26]; before treatment): 7.24 ± 0.014 cm
- Metaphase, dividing cells ([22]; Allium cepa root tips, 1 μL/mL): 13.27%
- Mitotic index ([22]; Allium cepa root tips, 1 μL/mL): 1.96%
- Prophase, dividing cells ([22]; Allium cepa root tips, 1 μL/mL): 86.73%
- Chromosomal aberration: Breakage [27]: 15
- Chromosomal aberration: Bridges [27]: 30
- Chromosomal aberration: Clumped [27]: 14
- Chromosomal aberration: Multipolarity [27]: 21
- Chromosomal aberration: Stickiness [27]: 28
- Total abberations [27]: 21.60%

SMILES: O=C(O)c1cn(C2CC2)c2cc(N3CCNCC3)c(F)cc2c1=O [ciprofloxacin, Ciprofloxacin]
- zone of inhibition at 10 µg/disc ([3]; ATCC10876, read-out: Zone of inhibition, standard drug): 15 ± 0.013 mm
- zone of inhibition at 10 µg/disc [28]: 21 ± 0.015 mm
- zone of inhibition at 10 µg/disc ([13]; ATCC11632, read-out: Zone of inhibition, standard drug): 19 ± 0.017 mm
- zone of inhibition at 10 µg/disc ([20]; ATCC25175, read-out: Zone of inhibition, standard drug): 7 ± 0.015 mm
- zone of inhibition at 10 µg/disc ([21]; ATCC11774, read-out: Zone of inhibition, standard drug): 16 ± 0.015 mm

SMILES: OC(Cn1cncn1)(Cn1cncn1)c1ccc(F)cc1F [fluconazole]
- Zone of inhibition, standard drug ([4]; A. fumigatus, 10 µg/disc): 16 ± 0.011 mm
- zone of inhibition at 10 µg/disc ([4]; Aspergillus fumigatus, ATCC204305, read-out: Zone of inhibition, standard drug): 16 mm
- Zone of inhibition, standard drug ([5]; A. niger, 10 µg/disc): 12 ± 0.013 mm
- zone of inhibition at 10 µg/disc ([5]; Aspergillus niger, ATCC16885, read-out: Zone of inhibition, standard drug): 12 mm
- Zone of inhibition, standard drug ([7]; C. albicans, 10 µg/disc): 20 ± 0.014 mm
- zone of inhibition at 10 µg/disc ([7]; Candida albicans, ATCC66027, read-out: Zone of inhibition, standard drug): 20 mm
- Zone of inhibition, standard drug ([23]; S. cerevisiae, 10 µg/disc): 14 ± 0.016 mm
- zone of inhibition at 10 µg/disc ([23]; Saccharomyces cerevisiae, ATCC9763, read-out: Zone of inhibition, standard drug): 14 mm
